# Experimental data from patent US12116424B2, “Compounds and compositions for modulating Listeria virulence” (priority 2021, dated 2024).
# Where two headings read alike, the source gives them in different places. Where a SMILES comes first, the peptide text is derived from it. Bridges are numbered along the chain shown (N, C = ends). [ ]: non-standard residue; d: D form.
# What was measured:
# L. monocytogenes AgrC [1] = molecular target: T1, L. monocytogenes AgrC (Listeria monocytogenes serovar 1/2a, UniProt Q8YAR5); assay: Fluorescence (agr-GFP) reporter agonism assay, ΔagrD reporter strain; assay type: cell-based; set-up: Emax: dose or concentration left out as unconfirmed; details: for agonism activity (in words): ΔagrD reporter
# T1 sequence (Q8YAR5 entry or part of it): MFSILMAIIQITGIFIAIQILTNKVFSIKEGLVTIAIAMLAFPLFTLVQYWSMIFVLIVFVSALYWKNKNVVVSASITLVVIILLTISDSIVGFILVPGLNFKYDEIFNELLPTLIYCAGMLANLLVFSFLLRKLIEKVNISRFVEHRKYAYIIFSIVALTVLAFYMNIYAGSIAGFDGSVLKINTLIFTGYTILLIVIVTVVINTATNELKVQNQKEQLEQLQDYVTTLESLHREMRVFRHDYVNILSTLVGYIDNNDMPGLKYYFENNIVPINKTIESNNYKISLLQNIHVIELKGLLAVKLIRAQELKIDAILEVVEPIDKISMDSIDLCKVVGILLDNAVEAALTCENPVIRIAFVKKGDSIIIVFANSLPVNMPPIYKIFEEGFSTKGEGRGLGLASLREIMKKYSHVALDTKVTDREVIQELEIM
# From the text: (§1) Construction of Listeria agr Reporter Strains. A gene block was designed and purchased from Integrated DNA Technologies to contain an EagI recognition site, the PII promoter of the agr system, the 3′ UTR of hly, super folder GFP, and a SaII recognition site. The gene block was digested with EagI and SaII, cloned into an EagI/SaII-cut pAM401 plasmid resulting in the plasmid pAM401-KW1, and then transformed into E. coli XL1-Blue competent cells. The insertion into pAM401 was confirmed using Kapa polymerase and primers DAP337 and DAP338, and additional confirmation via commercial sequencing. Purified plasmid was transformed into the conjugative E. coli S17 strain, which was used to conjugate to EGD-e and EGD-e ΔagrD to generate the agr-GFP reporter strains EGD-e:pAM401-KW1 and EGD-e ΔagrD:pAM401-KW1. Conjugation was verified using primers DAP337 and DAP338.
# (§2) Fluorescence reporter assay protocol. For QS (agr) reporter assays, peptide stock solutions in DMSO (1 mM) were serially diluted in DMSO, and 2 μL of solution was added to each well in a black 96-well plate (polystyrene microtiter plate, Costar). Agonism assays utilized the ΔagrD reporter strain, with 2 μL of 100 μM AIP (final concentration 1 μM) as a positive control and 2 μL of DMSO as a negative control. Antagonism assays utilized the EGD-e reporter strain, with 2 μL of DMSO as a positive control. In both assays, wells containing only BHI media served as negative controls for normalization. An overnight culture of bacteria was diluted 1:50 in fresh BHI, then 198 μL were transferred to each well (excluding the media control wells). Plates were then incubated at 37° C. for 24 hours with shaking at 200 rpm. Fluorescence of GFP (excitation at 500 nm, emission at 540 nm) and OD600 of each well was measured using BioTek Synergy 2 plate reader. Measurements were processed by subtracting background fluorescence (BHI media), correcting by OD600, and the normalizing using the 1 μM AIP or the DMSO control for the agonism and antagonism assays, respectively. Non-linear regression curves were fitted to the data sets in GraphPad Prism 7 by using variable slope (four-parameter) dose-response analysis to obtain potency, efficacy, and statistical information about the activity of tested peptides. Each peptide was tested with three technical replicates and three biological replicates. All data derived from fluorescent reporter strains are represented with data points signifying the mean and error bars signifying the standard deviation from all replicates.
# Preparation and Validation of Listeria agr Reporter Strains. In order to facilitate profiling the native AIP and its analogs for agr activity, L. monocytogenes agr GFP reporters were designed and constructed as described above (see Materials and General Methods). Briefly, a plasmid containing the agr promoter region upstream of gfp was transformed into wild-type (EGD-e) and ΔagrD L. monocytogenes strains. The wild-type reporter naturally produces its own AIP and is able to activate AgrC, which may subsequently phosphorylate AgrA for productive binding to DNA and triggering the production of GFP (FIG. 1A). The ΔagrD reporter, lacking the ability to produce its own AIP and thereby activate AgrC, is unable to trigger substantial production of GFP. However, adding exogenous AIP to the ΔagrD reporter results in an increase of fluorescence, indicating agr activity has been restored.
# L. monocytogenes AgrC [2] = molecular target: T1, L. monocytogenes AgrC; assay: Fluorescence (agr-GFP) reporter antagonism assay, wild-type EGD-e reporter strain; assay type: cell-based
# From the text: as §1, §2
# Preparation and Validation of Listeria agr Reporter Strains. […] However, adding exogenous AIP to the ΔagrD reporter results in an increase of fluorescence, indicating agr activity has been restored.
# [3] = system: L. monocytogenes EGD-e ΔagrD; assay: Crystal violet biofilm assay, ΔagrD strain (agonists); assay type: cell-based, Listeria monocytogenes
# Method: Biofilm assay protocol. Biofilms assays were adapted from previous reports and protocols.^51-52 Overnight cultures of L. monocytogenes EGD-e and ΔagrD were grown in BHI, then diluted 1:100 in LB. For single-point assays, 2 μL of agonists or antagonists at an appropriate concentration were added to wells in a clear 96-well microtiter plates. For dose-response assays, a stock solution of the select peptide were serially diluted in DMSO, then 2 μL of each concentration were transferred to the appropriate wells. Then, 198 μL of bacteria were added to their respective wells, using ΔagrD for agonist wells and EGD-e for antagonist wells. In each plate, additional vehicle controls for baseline biofilm formation of EGD-e and ΔagrD strains (2 μL of DMSO) were included, as well as a media control (200 μL of LB). Plates were incubated at room temperature for 24 hours statically, at which point plates were inverted over a glass waste container and gently shook to remove planktonic bacteria. The wells were gently washed with 200 μL of PBS twice, inverting again over the waste container to remove liquid. Then, 200 μL of 0.1% crystal violet solution (in water) were added to each well and incubated for 30 minutes. The wells were then washed with 200 μL of PBS three more times and left to air dry for 15 minutes. Remaining crystal violet was solubilized by the addition of 100 μL of 95% ethanol in water solution, pipetting up and down to mix, incubated for 10 minutes, then absorbance was read at 595 nm. Absorbance data was processed by normalizing to the EGD-e vehicle control (100%) and the LB media control (0%). Non-linear regression curves were fitted to the data sets in GraphPad Prism 7 by using variable slope (four-parameter) dose-response analysis to obtain potency, efficacy, and statistical information about the activity of tested peptides. Each well was tested with four technical replicates and three biological replicates. All data derived from crystal violet biofilm assays are represented with data points signifying the mean and error bars signifying the standard deviation from all replicates.
# [4] = read-out: Max Activation Observed
compound,measurement,setting,value
"CSCC[C@@H]1NC(=O)[C@H](C)NC(=O)[C@@H](NC(=O)[C@H](C)N)CSC(=O)[C@H](C(C)C)NC(=O)[C@H](Cc2ccccc2)NC1=O [AIP F3A, A-(C-A-M-F-V)] (H-ACAMFV; thioester 2-C; N-terminus assumed)",Emax,L. monocytogenes AgrC [1]; [4],9.72%
same,agonism activity (in words),L. monocytogenes AgrC [1],abolished agonism activity
same,antagonism activity (in words),L. monocytogenes AgrC [2],no noticeable antagonism
"CSCC[C@@H]1NC(=O)[C@@H](Cc2ccccc2)NC(=O)[C@@H](NC(=O)[C@H](C)N)CSC(=O)[C@H](C(C)C)NC(=O)[C@H](Cc2ccccc2)NC1=O [AIP F3dF, A-(C-dF-M-F-V)] (H-AC[dF]MFV; thioester 2-C; N-terminus assumed)",Emax,L. monocytogenes AgrC [1]; [4],6.63%
same,agonism activity (in words),L. monocytogenes AgrC [1],largely inactive
same,antagonism activity (in words),L. monocytogenes AgrC [2],largely inactive
"CSCC[C@H]1NC(=O)[C@H](Cc2ccccc2)NC(=O)[C@@H](NC(=O)[C@H](C)N)CSC(=O)[C@H](C(C)C)NC(=O)[C@H](Cc2ccccc2)NC1=O [AIP M4dM, A-(C-F-dM-F-V)] (H-ACF[dM]FV; thioester 2-C; N-terminus assumed)",increase in potency,"L. monocytogenes AgrC [1]; agonism, relative to native AIP",three-fold
same,Emax,L. monocytogenes AgrC [1]; [4],111%
same,agonism activity (in words),L. monocytogenes AgrC [1],no effect on agonism
same,biofilm formation of ΔagrD strain (FIG. 9A),[3],increase biofilm formation
same,biofilm production compared to vehicle controls,"[3]; 10 μM, ΔagrD bacteria",doubled
"CC(C)C[C@@H]1NC(=O)[C@H](C(C)C)NC(=O)[C@@H](NC(=O)[C@@H](N)CO)CSC(=O)[C@H](CC(C)C)NC(=O)[C@H](Cc2c[nH]cn2)NC1=O [L. weihenstephanensis AIP, S-(C-V-L-H-L), reference compound] (H-SCVLHL; thioester 2-C; N-terminus assumed)",Emax,L. monocytogenes AgrC [1]; read-out: Max Activation,11.2%
"CSCC[C@@H]1NC(=O)[C@H](CO)NC(=O)[C@@H](NC(=O)[C@H](C)N)CSC(=O)[C@H](C(C)C)NC(=O)[C@H](Cc2ccccc2)NC1=O [Lm AIP F3S, A-(C-S-M-F-V)] (H-ACSMFV; thioester 2-C; N-terminus assumed)",Emax,L. monocytogenes AgrC [1]; read-out: Max Activation,16.1%
"CC[C@H](C)[C@@H]1NC(=O)[C@H](Cc2ccccc2)NC(=O)[C@H](CC(=O)O)NC(=O)[C@@H](NC(=O)[C@@H](NC(=O)[C@H](CO)NC(=O)[C@@H](N)Cc2ccc(O)cc2)[C@@H](C)O)CSC(=O)[C@H](CCSC)NC1=O [Sa AIP-I, Y-S-T-(C-D-F-I-M), reference compound] (H-YSTCDFIM; thioester 4-C)",Emax,L. monocytogenes AgrC [1]; read-out: Max Activation,12.2%
"CC(C)C[C@@H]1NC(=O)[C@H](CO)NC(=O)[C@H](CO)NC(=O)[C@@H](NC(=O)[C@H](C)NC(=O)[C@H](CC(N)=O)NC(=O)[C@@H](NC(=O)CN)C(C)C)CSC(=O)[C@H](Cc2ccccc2)NC1=O [Sa AIP-II, G-V-N-A-(C-S-S-L-F), reference compound] (H-GVNACSSLF; thioester 5-C)",Emax,L. monocytogenes AgrC [1]; read-out: Max Activation,12%
"CC[C@H](C)[C@H](N)C(=O)N[C@@H](CC(N)=O)C(=O)N[C@H]1CSC(=O)[C@H](CC(C)C)NC(=O)[C@H](CC(C)C)NC(=O)[C@H](Cc2ccccc2)NC(=O)[C@H](C)NC1=O [Sa AIP-III D4A, I-N-(C-A-F-L-L), reference compound] (H-INCAFLL; thioester 3-C)",Emax,L. monocytogenes AgrC [1]; read-out: Max Activation,12.3%
"CC[C@H](C)[C@H](N)C(=O)N[C@@H](CC(N)=O)C(=O)N[C@H]1CSC(=O)[C@H](CC(C)C)NC(=O)[C@H](CC(C)C)NC(=O)[C@H](Cc2ccccc2)NC(=O)[C@H](CC(=O)O)NC1=O [Sa AIP-III, I-N-(C-D-F-L-L), reference compound] (H-INCDFLL; thioester 3-C)",Emax,L. monocytogenes AgrC [1]; read-out: Max Activation,11.3%
"CC[C@H](C)[C@@H]1NC(=O)[C@H](Cc2ccccc2)NC(=O)[C@H](Cc2ccc(O)cc2)NC(=O)[C@@H](NC(=O)[C@@H](NC(=O)[C@H](CO)NC(=O)[C@@H](N)Cc2ccc(O)cc2)[C@@H](C)O)CSC(=O)[C@H](CCSC)NC1=O [Sa AIP-IV, Y-S-T-(C-Y-F-I-M), reference compound] (H-YSTCYFIM; thioester 4-C)",agonism or antagonism activity compared to vehicle (FIG. 1B),"L. monocytogenes AgrC [1]; 10 μM, wild-type reporter or ΔagrD reporter",minimal efficacy
same,Emax,L. monocytogenes AgrC [1]; read-out: Max Activation,9.81%
"CC(C)[C@H](NC(=O)[C@H](CO)NC(=O)[C@H](C)N)C(=O)N[C@H]1CSC(=O)[C@H](Cc2ccccc2)NC(=O)[C@H](Cc2ccc(O)cc2)NC(=O)[C@H](C)NC(=O)[C@H](C)NC1=O [Se AIP-I D1AS6A, A-S-V-(C-A-A-Y-F), reference compound] (H-ASVCAAYF; thioester 4-C)",Emax,L. monocytogenes AgrC [1]; read-out: Max Activation,12.4%
"C[C@H](N)C(=O)N[C@@H](CO)C(=O)N[C@@H](C)C(=O)N[C@H]1CSC(=O)[C@H](Cc2ccccc2)NC(=O)[C@H](Cc2ccc(O)cc2)NC(=O)[C@H](C)NC(=O)[C@H](C)NC1=O [Se AIP-I D1AV3AS6A, A-S-A-(C-A-A-Y-F), reference compound] (H-ASACAAYF; thioester 4-C)",Emax,L. monocytogenes AgrC [1]; read-out: Max Activation,12.1%
"CC(C)[C@H](NC(=O)[C@H](CO)NC(=O)[C@@H](N)CC(=O)O)C(=O)N[C@H]1CSC(=O)[C@H](Cc2ccccc2)NC(=O)[C@H](Cc2ccc(O)cc2)NC(=O)[C@H](CO)NC(=O)[C@H](C)NC1=O [Se AIP-I, D-S-V-(C-A-S-Y-F), reference compound] (H-DSVCASYF; thioester 4-C)",Emax,L. monocytogenes AgrC [1]; read-out: Max Activation,8.65%
"CC(C)C[C@@H]1NC(=O)[C@H](Cc2ccc(O)cc2)NC(=O)[C@H](CC(N)=O)NC(=O)[C@H](CO)NC(=O)[C@@H](NC(=O)[C@@H]2CCCN2C(=O)[C@H](CC(N)=O)NC(=O)[C@H](Cc2ccc(O)cc2)NC(=O)[C@H](CCCCN)NC(=O)[C@H](CO)NC(=O)[C@H](C)NC(=O)[C@@H](N)CC(N)=O)CSC1=O [Se AIP-II, N-A-S-K-Y-N-P-(C-S-N-Y-L), reference compound] (H-NASKYNPCSNYL; thioester 8-C)",Emax,L. monocytogenes AgrC [1]; read-out: Max Activation,8.45%
"CC(C)C[C@@H]1NC(=O)[C@H](Cc2ccc(O)cc2)NC(=O)[C@H](CO)NC(=O)[C@H](C)NC(=O)[C@@H](NC(=O)[C@@H]2CCCN2C(=O)[C@H](CC(N)=O)NC(=O)[C@H](Cc2ccc(O)cc2)NC(=O)[C@H](CCCCN)NC(=O)[C@H](C)NC(=O)[C@H](C)NC(=O)[C@@H](N)CC(N)=O)CSC1=O [Se AIP-III, N-A-A-K-Y-N-P-(C-A-S-Y-L), reference compound] (H-NAAKYNPCASYL; thioester 8-C)",Emax,L. monocytogenes AgrC [1]; read-out: Max Activation,8.73%
A-(C-F-M-A-V) [AIP F5A],Max Activation Observed,"L. monocytogenes AgrC [1]; Table 6, normalized with 1 μM AIP (100%) and media (0%) in ΔagrD reporter",6.37%
same,agonism activity (in words),L. monocytogenes AgrC [1],abolished agonism activity
same,antagonism activity (in words),L. monocytogenes AgrC [2],no noticeable antagonism
